Assay results: US8541363B2, “Pyruvamide compounds as inhibitors of dust mite group 1 peptidase allergen and their use” (St George's Hosptial Medical School, priority 2010, dated 2013)
pIC50: −log10 of the molar value. Like-named read-outs stand apart in the source and are kept apart here.

Molecular target: Der p 1 (Dermatophagoides pteronyssinus (European house dust mite), UniProt P08176)
Experiment: Der p 1 enzyme activity assay (FRET fluorogenic substrate)
Type: biochemical
Description: The fluorogenic substrate used for measuring Der p 1 proteolytic activity was 2-aminobenzoylvalylalanylnorleucylseryl-(3-nitro)tyrosinyl aspartamide.
Test compounds were dissolved in dry DMSO and maintained at 4° C. as stock solutions until being diluted for use in screening assays. Final concentration of DMSO in all enzymatic assays was 0.5% v/v.
Reaction mixtures were assembled in a 96-well plate format (Perkin Elmer Optiplate 96F, Perkin Elmer LAS, Seer Green, Buckinghamshire, UK) using a Perkin Elmer MultiPROBE II Plus HTS EX robot with Gripper attachment. […] Dithiothreitol (DTT, 10 μL/well, 1 mM final concentration) was then added together with 10 μL of Der p 1 dissolved at 2.5 μg/mL in reaction buffer supplemented with 1 mM DTT. […] The plate was immediately transferred to a fluorescence plate reader (Perkin Elmer Fusion Alpha-FP or Perkin Elmer Envision) equipped with a temperature-controlled carrier set at 30° C. and the reaction followed by excitation/emission at 330/420 nm.
Inhibitory activity was analysed from progress curves of reactions in the presence of a range of inhibitor concentrations.
Initial velocity in each well was converted to fractional activity by Equation 1: Fractional activity=(Initial rate at inhibitor concentration[X]/Initial rate at inhibitor concentration zero)*100 Equation 1:
Then, IC50 was determined by fitting the data of fractional activity and inhibitor concentration to a 4-parameter logistic curve, using Equation 2: V=Vmin+[Vmax−Vmin]/[1+(X/IC50)Hillslope] […] Biological Data—Der p 1 Enzyme Assay

[1] = threshold stated in text, read-out: Der p 1 IC50

Der p 1, sequence (P08176 99-320): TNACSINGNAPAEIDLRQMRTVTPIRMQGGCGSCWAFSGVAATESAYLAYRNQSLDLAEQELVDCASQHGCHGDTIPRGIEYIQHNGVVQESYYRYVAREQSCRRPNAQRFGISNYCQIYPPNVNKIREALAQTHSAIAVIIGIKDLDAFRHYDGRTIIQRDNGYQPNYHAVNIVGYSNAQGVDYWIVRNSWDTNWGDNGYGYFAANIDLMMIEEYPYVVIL

Row | SMILES | pIC50 [1] | pIC50 (Der p 1 IC50)
1 | CC(C)C(NC(=O)[C@H](C)NC(=O)[C@@H](Cc1ccccc1)NC(=O)c1ccncc1)C(=O)C(=O)NC1CCCCC1 (stereo in doubt) [PVA-020] | > 6.70 | 
2 | CC(C)[C@H](NC(=O)[C@H](C)NC(=O)[C@@H](NC(=O)c1ccccc1)C(C)(C)C)C(=O)C(=O)NCC(=O)N1CCc2ccccc2C1 [PVA-111] |  | > 7.70
3 | CC(C)[C@H](NC(=O)[C@H](C)NC(=O)[C@@H](Cc1ccc2ccccc2c1)NC(=O)c1ccccc1)C(=O)C(=O)NCc1ccccc1 [PVA-032] | > 6.70 | 
4 | CC(C)[C@H](NC(=O)[C@H](C)NC(=O)[C@H](Cc1ccccc1)NC(=O)c1cccc(OCCN2CCCC2)c1)C(=O)C(=O)NC1CCCCC1 [PVA-065] | > 6.70 | 
5 | CC(C)[C@H](NC(=O)[C@H](C)NC(=O)[C@@H](Cc1ccccc1)NC(=O)c1ccc(-c2ccccc2)cc1)C(=O)C(=O)NC1CCCCC1 [PVA-019] | > 6.70 | 
6 | CC(C)[C@H](NC(=O)[C@H](C)NC(=O)[C@@H](NC(=O)c1ccc2ncsc2c1)C(C)(C)C)C(=O)C(=O)NC1CCCCC1 [PVA-053] | > 6.70 | 
7 | CC(C)[C@H](NC(=O)[C@H](C)NC(=O)[C@@H](NC(=O)c1ccccc1)C(C)(C)C)C(=O)C(=O)NCc1cccc(Cl)c1 [PVA-191] | > 6.70 | 
8 | COc1ccc(NC(=O)C(=O)[C@@H](NC(=O)[C@H](C)NC(=O)[C@H](Cc2ccccc2)NC(=O)c2ccccc2)C(C)C)cc1 [PVA-012] | > 5.70 | 
9 | CC(C)[C@H](NC(=O)[C@H](C)NC(=O)C(C)(C)NC(=O)c1ccccc1)C(=O)C(=O)NC1CCCCC1 [PVA-090] | > 5.70 | 
10 | CC(C)[C@H](NC(=O)[C@H](C)NC(=O)[C@@H](NC(=O)c1ccc(N2CCN(C)CC2)cc1)C(C)(C)C)C(=O)C(=O)NCc1ccccc1 [PVA-176] | > 6.70 | 
11 | CC(C)[C@H](NC(=O)[C@H](C)NC(=O)[C@@H](NC(=O)c1ccccc1)C(C)(C)C)C(=O)C(=O)NCc1nccn1C [PVA-166] | > 6.70 | 
12 | CNC(=O)C(=O)[C@@H](NC(=O)[C@H](C)NC(=O)[C@@H](NC(=O)c1ccccc1)C(C)(C)C)C(C)C [PVA-117] | > 6.70 | 
13 | CC(C)[C@@H](NC(=O)[C@H](C)NC(=O)[C@@H](NC(=O)c1ccccc1)C(C)(C)C)C(=O)C(=O)NC1CCCCC1 [PVA-085] |  | > 6.70
14 | CC(C)[C@H](NC(=O)[C@H](C)NC(=O)[C@@H](NC(=O)C1CCN(C(C)C)CC1)C(C)(C)C)C(=O)C(=O)NCc1ccccc1 [PVA-172] | > 6.70 | 
15 | CC(C)C[C@H](NC(=O)[C@H](C)NC(=O)[C@H](Cc1ccccc1)NC(=O)c1ccccc1)C(=O)C(=O)NC(C)C [PVA-004] | > 6.70 | 
16 | CNC(=O)c1ccc(CNC(=O)C(=O)[C@@H](NC(=O)[C@H](C)NC(=O)[C@@H](NC(=O)c2ccccc2)C(C)(C)C)C(C)C)cc1 [PVA-196] | > 7.70 | 
17 | CC(C)[C@H](NC(=O)[C@H](C)NC(=O)[C@@H](NC(=O)c1ccccc1)C(C)(C)C)C(=O)C(=O)N[C@H]1CCc2ccccc21 [PVA-110] | > 6.70 | 
18 | CC(C)[C@H](NC(=O)[C@H](C)NC(=O)[C@H](Cc1ccccc1)NC(=O)c1ccccc1)C(=O)C(=O)NCC(=O)N1CCOCC1 [PVA-068] |  | > 7.70

Row | SMILES | pIC50 [1] | pIC50 (Der p 1 IC50)
19 | CC(C)[C@H](NC(=O)[C@H](C)NC(=O)[C@H](Cc1ccccc1)NC(=O)c1ccccc1)C(=O)C(=O)N[C@@H](C)c1ccccc1 [PVA-016] | > 5.70 | 
20 | CC(C)[C@H](NC(=O)[C@H](C)NC(=O)[C@H](Cc1ccccc1)NC(=O)c1ccnc(N2CCOCC2)c1)C(=O)C(=O)NC1CCCCC1 [PVA-069] | > 5.70 | 
21 | CC(C)[C@H](NC(=O)[C@H](C)NC(=O)[C@@H](Cc1ccccc1F)NC(=O)c1ccccc1)C(=O)C(=O)NC1CCCCC1 [PVA-030] | > 6.70 | 
22 | CC(C)[C@H](NC(=O)[C@H](C)NC(=O)[C@@H](NC(=O)c1ccccc1)C(C)(C)C)C(=O)C(=O)N[C@@H]1CN2CCC1CC2 [PVA-120] |  | > 6.70
23 | CC(C)[C@H](NC(=O)[C@H](C)NC(=O)[C@H](Cc1ccccc1)NC(=O)c1n[nH]c2ccccc12)C(=O)C(=O)NCc1ccccc1 [PVA-113] | > 6.70 | 
24 | COCCNC(=O)C(=O)[C@@H](NC(=O)[C@H](C)NC(=O)[C@H](Cc1ccccc1)NC(=O)c1ccccc1)C(C)C [PVA-046] | > 6.70 | 
25 | CC(C)[C@H](NC(=O)[C@H](C)NC(=O)[C@H](Cc1ccccc1)NC(=O)c1ccccc1)C(=O)C(=O)NCC(=O)N1CCC(N(C)C)CC1 [PVA-093] | > 7.70 | 
26 | CC(C)[C@H](NC(=O)[C@H](C)NC(=O)[C@@H](NC(=O)c1ccccc1)C(C)(C)C)C(=O)C(=O)NCc1ccc(C(F)(F)F)cc1 [PVA-181] | > 6.70 | 
27 | CC(C)[C@H](NC(=O)[C@H](C)NC(=O)[C@@H](NC(=O)c1ccccc1)C(C)(C)C)C(=O)C(=O)NCc1cccc(C(=O)OC(C)(C)C)c1 [PVA-200] | > 6.70 | 
28 | Cc1cc(C(=O)N[C@H](C(=O)N[C@@H](C)C(=O)N[C@H](C(=O)C(=O)NCc2ccccc2)C(C)C)C(C)(C)C)[nH]n1 [PVA-107] | > 6.70 | 
29 | CC(C)[C@H](NC(=O)[C@H](C)NC(=O)C1CCCN1C(=O)c1ccccc1)C(=O)C(=O)NCC(=O)N1CCN(C)CC1 (some centres unmarked) [PVA-140] | > 5.70 | 
30 | CC(C)[C@H](NC(=O)[C@H](C)NC(=O)[C@@H](NC(=O)c1ccnc2ccccc12)C(C)(C)C)C(=O)C(=O)NCc1ccccc1 [PVA-072] | > 7.70 | 
31 | CC(C)[C@H](NC(=O)[C@H](C)NC(=O)[C@@H](NC(=O)c1ccccc1C(=O)O)C(C)(C)C)C(=O)C(=O)NCC(=O)N1CCN(C)CC1 [PVA-136] | > 7.70 | 
32 | COc1ccc(CNC(=O)C(=O)[C@@H](NC(=O)[C@H](C)NC(=O)[C@H](Cc2ccccc2)NC(=O)c2ccccc2)C(C)C)cc1 [PVA-042] | > 7.70 | 
33 | CC(C)[C@H](NC(=O)[C@H](C)NC(=O)[C@H](Cc1ccccc1)NC(=O)c1ccc2ncsc2c1)C(=O)C(=O)NCc1ccccc1 [PVA-051] | > 6.70 | 
34 | CC(C)[C@H](NC(=O)[C@H](C)NC(=O)[C@H](Cc1ccccc1)NC(=O)c1ccc2ncsc2c1)C(=O)C(=O)NC1CCCCC1 [PVA-050] | > 6.70 | 
35 | CC(C)[C@H](NC(=O)[C@H](C)NC(=O)[C@@H](NC(=O)c1ccccc1)C(C)(C)C)C(=O)C(=O)NCc1ccc(C(C)(C)C)cc1 [PVA-180] | > 6.70 | 

Further lines, with some results ahead:

Row | pIC50 [1] | SMILES | pIC50 (Der p 1 IC50)
36 | > 7.70 | CC(C)[C@H](NC(=O)[C@H](C)NC(=O)[C@@H](NC(=O)c1ccccc1)C12C[C@H]3C[C@@H](C1)C[C@@H](C2)C3)C(=O)C(=O)NCc1ccccc1 [PVA-066] | 
37 | > 7.70 | CNS(=O)(=O)c1ccc(CNC(=O)C(=O)[C@@H](NC(=O)[C@H](C)NC(=O)[C@@H](NC(=O)c2ccccc2)C(C)(C)C)C(C)C)cc1 [PVA-197] | 
38 | > 7.70 | CC(C)[C@H](NC(=O)[C@H](C)NC(=O)[C@@H](NC(=O)c1cccc2ncccc12)C(C)(C)C)C(=O)C(=O)NCc1ccccc1 [PVA-150] | 
39 | > 7.70 | CC(C)[C@H](NC(=O)[C@H](C)NC(=O)[C@@H](NC(=O)c1ccccc1)C(C)(C)C)C(=O)C(=O)NCc1ccc(=O)[nH]c1 [PVA-134] | 
40 | > 7.70 | CC(C)[C@H](NC(=O)[C@H](C)NC(=O)[C@@H](N1Cc2ccccc2C1=O)C(C)(C)C)C(=O)C(=O)NCc1ccccc1 [PVA-129] | 
41 | > 7.70 | CC(C)[C@H](NC(=O)[C@H](C)NC(=O)[C@@H](NC(=O)c1ccncc1)C(C)(C)C)C(=O)C(=O)NCc1ccccc1 [PVA-128] | 
42 | > 7.70 | CC(C)[C@H](NC(=O)[C@H](C)NC(=O)[C@H](Cc1ccccc1)N1Cc2ccccc2C1=O)C(=O)C(=O)NC1CCCCC1 [PVA-104] | 
43 | > 7.70 | CC(C)[C@H](NC(=O)[C@H](C)NC(=O)[C@@H](NC(=O)c1ccnc2ccccc12)C(C)(C)C)C(=O)C(N)=O [PVA-156] | 
44 | > 7.70 | CC(C)[C@H](NC(=O)[C@H](C)NC(=O)[C@@H](NC(=O)c1ccccc1)C(C)(C)C)C(=O)C(=O)NCc1ccc(C(N)=O)cc1 [PVA-202] | 
45 | > 7.70 | CC(C)[C@H](NC(=O)[C@H](C)NC(=O)[C@@H](NC(=O)C1CC[N+](C)(C)CC1)C(C)(C)C)C(=O)C(=O)NC1CCCCC1 [PVA-153] | 
46 | > 7.70 | CC(C)[C@H](NC(=O)[C@H](C)NC(=O)[C@@H](NC(=O)c1ccccc1)C(C)(C)C)C(=O)C(=O)NCc1ccc(F)cc1 [PVA-178] | 
47 | > 7.70 | CC(C)[C@H](NC(=O)[C@H](C)NC(=O)[C@H](Cc1ccccc1)NC(=O)c1ccncc1)C(=O)C(=O)NCc1ccccc1 [PVA-099] | 
48 | > 7.70 | CC(C)[C@H](NC(=O)[C@H](C)NC(=O)[C@@H](N1Cc2ccccc2C1=O)C(C)(C)C)C(=O)C(=O)NC1CC1 [PVA-177] | 
49 | > 7.70 | CC(C)[C@H](NC(=O)[C@H](C)NC(=O)[C@@H](N1Cc2ccccc2C1=O)C(C)(C)C)C(=O)C(=O)NCc1ccc(N2CCN(C)CC2)cc1 [PVA-211] | 
50 | > 7.70 | CC(C)[C@H](NC(=O)[C@H](C)NC(=O)[C@@H](NC(=O)c1cccc2ccccc12)C(C)(C)C)C(=O)C(=O)NCc1ccc(S(N)(=O)=O)cc1 [PVA-215] | 
51 | > 7.70 | COC(=O)c1cccc(CNC(=O)C(=O)[C@@H](NC(=O)[C@H](C)NC(=O)[C@@H](NC(=O)c2ccccc2)C(C)(C)C)C(C)C)c1 [PVA-199] | 
52 | > 7.70 | CC(C)[C@H](NC(=O)[C@H](C)NC(=O)[C@H](Cc1ccccc1)NC(=O)c1ccccc1)C(=O)C(=O)NCc1ccccc1 [PVA-009] | 
53 | > 7.70 | CC(C)[C@H](NC(=O)[C@H](C)NC(=O)[C@@H](NC(=O)c1ccccc1)C(C)(C)C)C(=O)C(=O)NCc1cccc(C(N)=O)c1 [PVA-155] | 
